In brackets after ≈: the same amount, converted by molar mass. Like-named read-outs stand apart in the source and are kept apart here.
Columns and labels:
[1] = from bulbs of Z. candida; cited from earlier work
[2] = MTT cytotoxicity assay, panel statement over the five cancer cell lines; type: cell-based, human; details: human
[3] = test system: five human cancer cell lines; test: as above; type: cell-based; details: for selectivity index compared to the Beas-2B cell line: cancer cell lines versus Beas-2B
[4] = comparison in words, Table S1 not available

Compound	IC50 at 48 h [2] [µM]	other results
O=C1N[C@H]2[C@H](O)[C@H](O)[C@@H](O)C[C@@H]2c2cc3c(c(O)c21)OCO3 (relative stereo) [trans-dihydronarciclasine]	–	IC50 as cytostatic agent [1]: 3.2 ng/mL (≈ 0.0103 µM)
CO[C@@H]1C=C[C@@]23c4cc5c(cc4C(O)[N+](C)(C[C@@H]2O)[C@H]3C1)OCO5.[Cl-] (stereo partly drawn) [Compound 1, N-methylhaemanthidine chloride]	0.81 to 13	selectivity index compared to the Beas-2B cell line [3]: ≤ 10; cytotoxicity compared with positive control cis-platin [3, 4]: more potent cytotoxicity than one of the positive controls (cis-platin)
CO[C@@H]1C=C[C@@]23c4cc5c(cc4CN(C[C@@H]2O)[C@H]3C1)OCO5 [Compound 2, haemanthamin]	0.81 to 13	selectivity index compared to the Beas-2B cell line [3]: ≤ 10; cytotoxicity compared with positive control cis-platin [3, 4]: more potent cytotoxicity than one of the positive controls (cis-platin)
CO[C@@H]1C=C[C@@]23c4cc5c(cc4C(=O)O[C@H]2CN(C)[C@H]3C1)OCO5 [Compound 3, 3-epimacronine]	> 10	–
CO[C@@H]1C=C[C@@]23c4cc5c(cc4CO[C@]2(O)CN(C)[C@H]3C1)OCO5 [Compound 4, (+)-tazettine]	> 10	–
CO[C@H]1C=C[C@@]23c4cc5c(cc4CN(C)[C@@H]2C(=O)N(C)[C@H]3C1)OCO5 [Compound 5, N-methyl-5,6-dihydroplicane]	> 10	–
COc1cc2c(c(OC)c1OC)[C@@H](OC)O[C@@H]1CC=C3CCN(C)[C@H]3[C@H]21 [Compound 6, O-methylnerinine]	> 10	–
CCOC(=O)CCn1c(=O)c2cc3c(cc2c2ccccc21)OCO3 [Compound 7, N-ethoxycarbonylethylcrinasiadine]	> 10	–
CCOC(=O)CCCn1c(=O)c2cc3c(cc2c2ccccc21)OCO3 [Compound 8, N-ethoxycarbonylpropylcrinasiadine]	> 10	–
O=c1c2cc3c(cc2c2ccccc2n1CCc1ccccc1)OCO3 [Compound 9, N-phenethylcrinasiadine]	0.81 to 13	cytotoxicity compared with positive control cis-platin [3]: more potent cytotoxicity than one of the positive controls (cis-platin); selectivity index compared to the Beas-2B cell line [3]: ≤ 10
CC(C)CCn1c(=O)c2cc3c(cc2c2ccccc21)OCO3 [Compound 10, N-isopentylcrinasiadine]	> 10	–
Cn1c(=O)c2cc3c(cc2c2ccccc21)OCO3 [Compound 11, N-methylcrinasiadine]	> 10	–
c1ccc2c(c1)ncc1cc3c(cc12)OCO3 [Compound 12, trisphaeridine]	> 10	–
CN1Cc2cc3c(cc2-c2ccccc21)OCO3 [Compound 13, 5,6-dihydrobicolorine]	> 10	–
O[C@H]1[C@H]2c3cc4c(cc3CN3CCC(=C[C@@H]1O)[C@H]23)OCO4 [Compound 14, lycorine]	0.81 to 13	selectivity index compared to the Beas-2B cell line [3]: ≤ 10; cytotoxicity compared with positive control cis-platin [3, 4]: more potent cytotoxicity than one of the positive controls (cis-platin)
C/C=C/C=C/C(=O)N1C[C@H](C)NC[C@H]1C [Compound 15, nigragillin]	> 10	–

— article PMC3580115 (Journal of natural products, 2012)
